Laboratory results reported in patent publication US8853250B2, “Sodium channel inhibitors” (Icagen, Inc., priority 2007, dated 2014).
Read-outs that look alike come from different tables or passages of the source.

How the values were obtained:
[1] = molecular target: T1, hSCN3A (Homo sapiens, UniProt Q9NY46); assay: Whole-cell patch-clamp electrophysiology, hSCN3A in HEK cells; format: cell-based
T1 construct: expressed in transfected cells
Description: (§1) Human Embryonic Kidney (HEK) cells were transfected with hSCN3A or hSCN9A constructs using lipofectamine reagent (Invitrogen), using standard techniques. […] Clones were screened for expression using the whole-cell voltage-clamp technique.
(§2) HEK cells stably transfected with hSCN3A or hSCN9A were maintained in DMEM medium supplemented with 10% heat-inactivated fetal bovine serum and 400 μg/ml G418 sulfate in an incubator at 37° C. with a humidified atmosphere of 10% CO2. […] For electrophysiological studies, cells were removed from the culture flask by brief trypsinization and replated at low density onto glass cover slips. Cells were typically used for electrophysiological experiments within 24 to 72 h after plating. […]
(§3) The voltage-dependence of inactivation was determined by applying a series of depolarizing prepulses (8 sec long in 10 mV increments) from a negative holding potential. […] Cells were then voltage clamped at the empirically determined V1/2.
(§4) Compounds were tested for their ability to inhibit hSCN3A or hSCN9A sodium channels by activating the channel with a 20 msec voltage step to 0 mV following an 8 second conditioning prepulse to the empirically determined V1/2 (Table B). Compound effect (% inhibition) was determined by difference in current amplitude before and after application of test compounds. […]

[2] = molecular target: T2, hSCN9A (Homo sapiens, UniProt Q15858); assay: Whole-cell patch-clamp electrophysiology, hSCN9A in HEK cells; format: cell-based
T2 construct: expressed in transfected cells
Description: as §1, §2, §3, §4

[3] = molecular target: Nav1.3 (Homo sapiens, UniProt Q9NY46); details: read-out: TTX IC-50; cited from earlier work
[4] = molecular target: Nav1.6 (Homo sapiens, UniProt Q9UQD0); details: read-out: TTX IC-50; cited from earlier work
[5] = molecular target: Nav1.8 (Homo sapiens, UniProt Q9Y5Y9); details: read-out: TTX IC-50; cited from earlier work
[6] = molecular target: Nav1.9 (Homo sapiens, UniProt Q9UI33); details: read-out: TTX IC-50; cited from earlier work
[7] = molecular target: Nav1.1 (Homo sapiens, UniProt P35498); details: read-out: TTX IC-50; cited from earlier work
[8] = molecular target: Nav1.2 (Homo sapiens, UniProt Q99250); details: read-out: TTX IC-50; cited from earlier work

T2 sequence (Q15858 whole entry): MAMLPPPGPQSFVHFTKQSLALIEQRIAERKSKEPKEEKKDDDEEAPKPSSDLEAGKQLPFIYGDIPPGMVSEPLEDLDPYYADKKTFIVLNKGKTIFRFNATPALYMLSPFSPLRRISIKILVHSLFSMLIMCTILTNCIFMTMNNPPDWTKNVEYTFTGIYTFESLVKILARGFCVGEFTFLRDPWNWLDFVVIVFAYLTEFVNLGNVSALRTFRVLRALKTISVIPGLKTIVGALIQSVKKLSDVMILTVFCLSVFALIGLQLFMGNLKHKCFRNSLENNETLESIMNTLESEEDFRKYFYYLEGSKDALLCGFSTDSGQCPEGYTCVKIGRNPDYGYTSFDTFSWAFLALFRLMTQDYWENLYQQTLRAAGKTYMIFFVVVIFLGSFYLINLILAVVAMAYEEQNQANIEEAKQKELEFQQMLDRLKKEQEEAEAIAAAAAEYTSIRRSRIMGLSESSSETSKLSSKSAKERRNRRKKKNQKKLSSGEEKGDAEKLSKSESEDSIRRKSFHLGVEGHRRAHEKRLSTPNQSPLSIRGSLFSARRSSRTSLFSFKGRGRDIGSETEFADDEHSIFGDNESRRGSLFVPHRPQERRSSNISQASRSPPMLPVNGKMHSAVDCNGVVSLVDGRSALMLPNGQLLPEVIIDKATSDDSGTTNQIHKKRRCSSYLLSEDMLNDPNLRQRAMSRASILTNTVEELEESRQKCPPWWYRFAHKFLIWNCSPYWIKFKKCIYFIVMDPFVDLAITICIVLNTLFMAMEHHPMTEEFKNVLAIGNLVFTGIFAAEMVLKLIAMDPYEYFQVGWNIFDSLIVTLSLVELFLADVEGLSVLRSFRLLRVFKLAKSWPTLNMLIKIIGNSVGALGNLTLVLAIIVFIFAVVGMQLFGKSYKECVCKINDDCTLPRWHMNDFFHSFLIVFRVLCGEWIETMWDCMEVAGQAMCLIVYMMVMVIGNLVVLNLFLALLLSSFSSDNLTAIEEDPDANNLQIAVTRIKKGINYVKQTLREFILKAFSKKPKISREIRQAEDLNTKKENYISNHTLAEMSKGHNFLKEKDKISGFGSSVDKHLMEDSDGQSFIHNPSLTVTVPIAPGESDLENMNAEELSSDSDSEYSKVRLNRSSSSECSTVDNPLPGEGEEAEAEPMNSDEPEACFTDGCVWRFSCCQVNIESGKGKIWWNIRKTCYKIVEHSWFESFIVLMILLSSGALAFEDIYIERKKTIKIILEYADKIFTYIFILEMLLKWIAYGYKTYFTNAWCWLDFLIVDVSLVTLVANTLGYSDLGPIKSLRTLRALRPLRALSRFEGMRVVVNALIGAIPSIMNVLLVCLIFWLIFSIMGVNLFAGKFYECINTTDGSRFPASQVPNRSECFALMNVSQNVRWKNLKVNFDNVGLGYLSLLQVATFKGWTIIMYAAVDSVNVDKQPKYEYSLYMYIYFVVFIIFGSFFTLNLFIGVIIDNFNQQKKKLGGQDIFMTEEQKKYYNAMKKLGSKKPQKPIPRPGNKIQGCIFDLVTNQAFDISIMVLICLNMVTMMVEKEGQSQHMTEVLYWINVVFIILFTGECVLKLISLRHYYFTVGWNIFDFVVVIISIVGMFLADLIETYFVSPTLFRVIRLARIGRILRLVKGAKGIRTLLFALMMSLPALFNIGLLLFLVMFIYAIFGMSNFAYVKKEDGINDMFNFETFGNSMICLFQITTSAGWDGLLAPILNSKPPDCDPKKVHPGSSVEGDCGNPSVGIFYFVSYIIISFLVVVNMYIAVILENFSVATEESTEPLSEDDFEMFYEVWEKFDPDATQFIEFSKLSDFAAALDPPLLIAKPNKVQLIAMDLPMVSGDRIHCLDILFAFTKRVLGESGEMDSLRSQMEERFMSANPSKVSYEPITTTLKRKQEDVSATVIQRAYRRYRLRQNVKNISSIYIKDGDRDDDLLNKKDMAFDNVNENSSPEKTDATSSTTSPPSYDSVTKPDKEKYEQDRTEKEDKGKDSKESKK
T1 sequence (Q9NY46 whole entry): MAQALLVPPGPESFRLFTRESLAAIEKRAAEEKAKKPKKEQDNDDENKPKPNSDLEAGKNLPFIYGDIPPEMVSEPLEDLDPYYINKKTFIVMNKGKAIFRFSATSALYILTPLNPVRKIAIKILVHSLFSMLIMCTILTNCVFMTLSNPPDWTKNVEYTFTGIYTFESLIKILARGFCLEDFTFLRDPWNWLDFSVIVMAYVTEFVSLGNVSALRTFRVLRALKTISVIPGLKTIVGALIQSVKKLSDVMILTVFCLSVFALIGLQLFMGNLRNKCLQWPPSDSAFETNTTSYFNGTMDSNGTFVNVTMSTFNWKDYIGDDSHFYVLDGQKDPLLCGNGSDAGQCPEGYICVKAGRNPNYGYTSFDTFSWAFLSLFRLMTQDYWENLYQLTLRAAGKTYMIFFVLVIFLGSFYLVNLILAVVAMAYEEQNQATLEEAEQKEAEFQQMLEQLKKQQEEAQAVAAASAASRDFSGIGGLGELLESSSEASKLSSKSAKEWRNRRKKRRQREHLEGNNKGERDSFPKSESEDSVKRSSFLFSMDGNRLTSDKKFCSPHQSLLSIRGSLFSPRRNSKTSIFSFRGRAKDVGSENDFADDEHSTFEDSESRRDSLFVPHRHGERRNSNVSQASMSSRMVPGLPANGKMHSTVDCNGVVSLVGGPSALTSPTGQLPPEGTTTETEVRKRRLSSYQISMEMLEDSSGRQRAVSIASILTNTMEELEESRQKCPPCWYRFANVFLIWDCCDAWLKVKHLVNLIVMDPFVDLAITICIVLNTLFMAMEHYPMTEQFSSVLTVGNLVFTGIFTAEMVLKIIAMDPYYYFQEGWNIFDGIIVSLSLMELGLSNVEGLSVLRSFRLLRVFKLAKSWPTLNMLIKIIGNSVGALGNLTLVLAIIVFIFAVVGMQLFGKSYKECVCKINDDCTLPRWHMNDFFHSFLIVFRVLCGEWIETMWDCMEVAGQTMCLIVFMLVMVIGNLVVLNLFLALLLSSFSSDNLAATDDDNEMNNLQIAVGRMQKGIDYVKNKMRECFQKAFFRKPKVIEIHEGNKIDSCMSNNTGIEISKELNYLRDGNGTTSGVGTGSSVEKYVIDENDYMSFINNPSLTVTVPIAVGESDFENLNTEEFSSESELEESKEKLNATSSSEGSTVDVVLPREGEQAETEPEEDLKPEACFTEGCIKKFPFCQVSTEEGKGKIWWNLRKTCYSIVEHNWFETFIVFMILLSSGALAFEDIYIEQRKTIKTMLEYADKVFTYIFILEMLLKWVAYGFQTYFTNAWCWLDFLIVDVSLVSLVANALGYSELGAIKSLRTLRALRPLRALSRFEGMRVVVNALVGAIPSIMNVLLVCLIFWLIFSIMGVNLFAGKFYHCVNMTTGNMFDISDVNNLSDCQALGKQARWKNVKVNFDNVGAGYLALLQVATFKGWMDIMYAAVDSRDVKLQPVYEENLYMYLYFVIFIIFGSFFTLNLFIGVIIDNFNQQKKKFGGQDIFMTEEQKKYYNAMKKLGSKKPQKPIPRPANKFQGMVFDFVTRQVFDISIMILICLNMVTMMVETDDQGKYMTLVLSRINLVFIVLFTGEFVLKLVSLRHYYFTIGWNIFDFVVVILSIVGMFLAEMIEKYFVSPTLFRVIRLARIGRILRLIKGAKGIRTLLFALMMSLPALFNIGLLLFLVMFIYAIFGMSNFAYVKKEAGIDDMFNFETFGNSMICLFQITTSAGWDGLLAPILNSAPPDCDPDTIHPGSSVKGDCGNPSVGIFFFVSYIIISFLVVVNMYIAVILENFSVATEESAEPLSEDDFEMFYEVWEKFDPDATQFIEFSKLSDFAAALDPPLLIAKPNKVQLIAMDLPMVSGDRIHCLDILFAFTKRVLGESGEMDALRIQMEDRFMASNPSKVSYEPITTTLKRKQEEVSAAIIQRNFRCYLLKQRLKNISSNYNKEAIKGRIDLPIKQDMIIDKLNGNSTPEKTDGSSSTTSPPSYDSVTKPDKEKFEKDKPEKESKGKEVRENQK
Nav1.3, sequence (Q9NY46 whole entry, looked up): as the sequence (Q9NY46 whole entry) above

In the case of `O=S(=O)(CCc1ccc(C(F)(F)F)cc1)c1ccc(S(=O)(=O)Nc2nccs2)cc1` [Compound 20, N-(thiazol-2-yl)-4-(4-(trifluoromethyl)phenethylsulfonyl)benzenesulfonamide], the IC50 [1] is reported as 160 nM and the IC50 [2] is reported as > 10000 nM.
For `O=S(=O)(Nc1nccs1)c1ccc(S(=O)(=O)c2ccccc2)cc1` [Compound 65, 4-(phenylsulfonyl)-N-(thiazol-2-yl)benzenesulfonamide], the IC50 ([1]; estimated IC-50 from single point % inhibition, HEK cells, 8 sec prepulse to V1/2, step to 0 mV, read-out: hSCN3A EIC-50) was 5000 nM and the IC50 ([2]; estimated IC-50 from single point % inhibition, HEK cells, 8 sec prepulse to V1/2, step to 0 mV, read-out: hSCN9A EIC-50) was 2700 nM.
In the case of `NC1=N[C@H](O)[C@H]2[C@H]3O[C@]4(O)O[C@@H]([C@@H](O)[C@@]2(N1)[C@@H]4O)[C@]3(O)CO` [TTX, tetrodotoxin], the IC50 [3] is given as 15 nM, the IC50 [4] is given as 6 nM and the IC50 [5] is given as 50000 nM. The IC50 [6] was 1000 nM, the IC50 [7] was 10 nM and the IC50 [8] was 10 nM.
